Experimental data published in US20140023715A1, “POLYMER CONJUGATES TARGETING CELLS AND METHODS RELATED THERETO” (EMORY UNIVERSITY, priority 2011, published 2014).

How the values were obtained:
MIA PaCa-2 cells = experiment: Cell proliferation, Crystal violet assay, 96 h; assay type: cell-based; details: Homo sapiens
[1] = test system: MIA PaCa-2 orthotopic pancreatic tumor; experiment: Tumor growth inhibition in mice bearing orthotopic MIA PaCa-2 pancreatic cancer; assay type: in vivo; details: i.v., gemcitabine-equivalent 2 mg/kg, five times
Experimental: (a) Mean tumor weight (blue bar) of non-, gemcitabine-, Gem-IONP, and ATF-Gem-IONPs treated MIA PaCa-2 bearing mice and individual weight distribution in every group (various symbols). Mice were given by i.v. injection of gemcitabine-equivalent dose of 2 mg/kg five times at 3- or 4-day intervals. At the end of the experimental period, tumor tissues were isolated and weighed. Values represent mean±S.D. for 16 mice. *Statistically significant difference vs. control, p<0.0001. **Statistically significant difference vs. gemcitabine and […] groups, p<0.05. (b) Representative tumor images of each group after dissection.
The tumor growth inhibition effect of ATF-Gem-IONPs was studied using female mice bearing orthotopical pancreatic cancer from an uPAR positive human pancreatic cancer cell line, MIA PaCa-2. NPs were administered five times at twice a week and the dose of ATF-Gem-IONPs was calculated based on gemcitabine-equivalence. Tumors were weighed at the end of the experiment, and average tumor weight was compared between groups (FIG. 4A). All of treated groups inhibited tumor growth compared to non-treated control group. […] Tumor weights agreed well tumor volumes results (FIG. 4B).

Nc1ccn([C@@H]2O[C@H](CO)[C@@H](O)C2(F)F)c(=O)n1 [gemcitabine]
viability at 1 µM (MIA PaCa-2 cells; gemcitabine equivalent concentration of 1 μM): 39%
IC50 (MIA PaCa-2 cells; gemcitabine-equivalent): 0.498 µM
tumor growth inhibition compared to non-treated control (tumor weight) [1]: 30%
